≈ marks a conversion by molar mass, not a printed value. Where “and” joins values, the source holds several entries; their conditions need not be identical. Equal values may be shown once.
Legend:
Assay in all cases: ≥ marks a high value that may be exact or a test limit, other limits are often not marked, values filed in µg/mL are converted to µM
[1] = tested on: Candida albicans CCARM 14020
[2] = tested on: Candida albicans CCARM 14022
Candida albicans SC5314 = tested on: Candida albicans SC5314
[3] = tested on: Malassezia sympodialis ATCC 42132
[4] = tested on: Acinetobacter baumannii ATCC 17978
Bacillus subtilis C626 = tested on: Bacillus subtilis C626
[5] = tested on: Candida albicans ATCC 64550
[6] = tested on: Enterobacter cloacae 218R
[7] = tested on: Enterococcus faecalis ATCC 29212
[8] = tested on: Enterococcus faecalis W61950
[9] = tested on: Enterococcus faecalis f43559
[10] = tested on: Enterococcus faecium mic80
[11] = tested on: Enterococcus faecium t62764
[12] = tested on: Escherichia coli ESBL 63103
[13] = tested on: Escherichia coli ESBL 64771
Escherichia coli O157:H7 = tested on: Escherichia coli O157:H7
[14] = tested on: Klebsiella pneumoniae ESBL 61962
[15] = tested on: Klebsiella pneumoniae ESBL 63575
[16] = tested on: Pseudomonas aeruginosa 198
[17] = tested on: Pseudomonas aeruginosa 213
Pseudomonas aeruginosa 9 = tested on: Pseudomonas aeruginosa 9
[18] = tested on: Pseudomonas aeruginosa H1001
[19] = tested on: Pseudomonas aeruginosa H1027
[20] = tested on: Pseudomonas aeruginosa H1030
[21] = tested on: Pseudomonas aeruginosa LES400
[22] = tested on: Pseudomonas aeruginosa PAO1 H103
[23] = tested on: Staphylococcus aureus ATCC 25923
[24] = tested on: Staphylococcus aureus C622
[25] = tested on: Staphylococcus aureus C623
[26] = tested on: Stenotrophomonas maltophilia ATCC 13637
[27] = tested on: Achromobacter xylosoxidans
Candida albicans = tested on: Candida albicans
Escherichia coli UB1005 = tested on: Escherichia coli UB1005
[28] = tested on: Pseudomonas aeruginosa M1251
[29] = tested on: Pseudomonas aeruginosa M1426
[30] = tested on: Pseudomonas aeruginosa M76
[31] = tested on: Pseudomonas aeruginosa M917
[32] = tested on: Pseudomonas aeruginosa PAO1
[33] = tested on: Pseudomonas aeruginosa R70
Pseudomonas aeruginosa = tested on: Pseudomonas aeruginosa
Pseudomonas fluorescens = tested on: Pseudomonas fluorescens
Ralstonia pickettii = tested on: Ralstonia pickettii
[34] = tested on: Salmonella enterica serovar Typhimurium
Staphylococcus aureus = tested on: Staphylococcus aureus
[35] = tested on: Stenotrophomonas maltophilia
[36] = tested on: Bacillus subtilis KCCM 11495
[37] = tested on: Enterococcus faecium CCARM 5028
[38] = tested on: Enterococcus faecium CCARM 5029
[39] = tested on: Escherichia coli KCCM 11569

Compound: C[C@H](NC(=O)[C@H](Cc1cnc[nH]1)NC(=O)[C@H](CO)NC(=O)[C@@H](N)CC(=O)O)C(=O)N[C@@H](CCCCN)C(=O)N[C@@H](CCCN=C(N)N)C(=O)N[C@@H](Cc1cnc[nH]1)C(=O)N[C@@H](Cc1cnc[nH]1)C(=O)NCC(=O)N[C@@H](Cc1ccc(O)cc1)C(=O)N[C@@H](CCCCN)C(=O)N[C@@H](CCCN=C(N)N)C(=O)N[C@@H](CCCCN)C(=O)N[C@@H](Cc1ccccc1)C(=O)N[C@@H](Cc1cnc[nH]1)C(=O)N[C@@H](CCC(=O)O)C(=O)N[C@@H](CCCCN)C(=O)N[C@@H](Cc1cnc[nH]1)C(=O)N[C@@H](Cc1cnc[nH]1)C(=O)N[C@@H](CO)C(=O)N[C@@H](Cc1cnc[nH]1)C(=O)N[C@@H](CCCN=C(N)N)C(=O)NCC(=O)N[C@@H](Cc1ccc(O)cc1)C(N)=O [DSHAKRHHGYKRKFHEKHHSHRGY]
- MIC [1]: 3.73 µM and 10.5 µM
- MIC [2]: 3.73 µM and 10.5 µM
- MIC (Candida albicans SC5314): 3.73 µM and 10.5 µM
- MIC [3]: 5.01 µM (≈ 15.2 µg/mL)

Compound: CC[C@H](C)[C@H](NC(=O)[C@H](Cc1c[nH]c2ccccc12)NC(=O)[C@H](CCCCN)NC(=O)[C@H](Cc1c[nH]c2ccccc12)NC(=O)[C@H](Cc1c[nH]c2ccccc12)NC(=O)[C@H](CCCNC(=N)N)NC(=O)[C@@H](N)CCCCN)C(=O)N[C@@H](CCCNC(=N)N)C(=O)N[C@@H](Cc1c[nH]c2ccccc12)C(=O)O [KRWWKWIRW]
- MIC [4]: 5 µM (≈ 7.22 µg/mL)
- MIC (Bacillus subtilis C626): 20 µM (≈ 28.9 µg/mL)
- MIC [5]: ≥ 100 µM
- MIC [6]: 3 µM (≈ 4.33 µg/mL)
- MIC [7]: 12 µM (≈ 17.3 µg/mL)
- MIC [8]: ≥ 99 µM
- MIC [9]: ≥ 49 µM
- MIC [10]: 3.1 µM (≈ 4.48 µg/mL)
- MIC [11]: 1.5 µM (≈ 2.17 µg/mL)
- MIC [12]: 1.5 µM (≈ 2.17 µg/mL)
- MIC [13]: 1.5 µM (≈ 2.17 µg/mL)
- MIC (Escherichia coli O157:H7): 1.25 µM (≈ 1.81 µg/mL)
- MIC [14]: 25 µM (≈ 36.1 µg/mL)
- MIC [15]: 6.2 µM (≈ 8.96 µg/mL)
- MIC [16]: 1.5 µM (≈ 2.17 µg/mL)
- MIC [17]: 3 µM (≈ 4.33 µg/mL)
- MIC (Pseudomonas aeruginosa 9): 5.9 µM (≈ 8.52 µg/mL)
- MIC [18]: 0.554 µM (≈ 0.8 µg/mL)
- MIC [19]: 0.8 µM (≈ 1.16 µg/mL)
- MIC [20]: 3 µM (≈ 4.33 µg/mL)
- MIC [21]: 5.9 µM (≈ 8.52 µg/mL)
- MIC [22]: 0.8 µM (≈ 1.16 µg/mL)
- MIC [23]: 3 µM (≈ 4.33 µg/mL)
- MIC [24]: 5 µM (≈ 7.22 µg/mL)
- MIC [25]: 1.5 µM (≈ 2.17 µg/mL)
- MIC [26]: 0.4 µM (≈ 0.578 µg/mL)

Compound: CC(C)C[C@H](NC(=O)[C@H](CC(C)C)NC(=O)[C@H](CCCCN)NC(=O)[C@H](C)NC(=O)[C@H](CC(C)C)NC(=O)[C@H](CCCCN)NC(=O)[C@H](CCCCN)NC(=O)[C@H](CC(C)C)NC(=O)[C@H](C)NC(=O)[C@H](CCCCN)NC(=O)[C@H](CCCCN)NC(=O)[C@H](Cc1ccc(O)cc1)NC(=O)[C@@H](N)CCCCN)C(N)=O [KYKKALKKLAKLL]
- MIC [27]: 5.18 µM (≈ 8 µg/mL)
- MIC (Candida albicans): 5.18 µM (≈ 8 µg/mL)
- MIC (Escherichia coli UB1005): 2.59 µM (≈ 4 µg/mL)
- MIC [28]: 1.29 µM (≈ 2 µg/mL)
- MIC [29]: 10.4 µM (≈ 16 µg/mL)
- MIC [30]: 2.59 µM (≈ 4 µg/mL)
- MIC [31]: 10.4 µM (≈ 16 µg/mL)
- MIC [32]: 2.59 µM (≈ 4 µg/mL)
- MIC [33]: 1.29 µM (≈ 2 µg/mL)
- MIC (Pseudomonas aeruginosa): 5.18 µM (≈ 8 µg/mL)
- MIC (Pseudomonas fluorescens): 5.18 µM (≈ 8 µg/mL)
- MIC (Ralstonia pickettii): 2.59 µM (≈ 4 µg/mL)
- MIC [34]: 2.59 µM (≈ 4 µg/mL)
- MIC (Staphylococcus aureus): 10.4 µM (≈ 16 µg/mL)
- MIC [35]: 1.29 µM (≈ 2 µg/mL)

Compound: CC(C)C[C@H](NC(=O)CNC(=O)[C@H](CCCCN)NC(=O)[C@H](CCCCN)NC(=O)[C@H](CC(C)C)NC(=O)[C@H](CC(C)C)NC(=O)[C@H](C)NC(=O)[C@H](CC(N)=O)NC(=O)[C@H](CC(C)C)NC(=O)[C@@H](N)Cc1c[nH]c2ccccc12)C(=O)N[C@@H](CC(N)=O)C(=O)N[C@@H](CS)C(=O)N[C@@H](C)C(=O)N[C@@H](CCCCN)C(=O)NCC(=O)N[C@H](C(=O)N[C@@H](CC(C)C)C(=O)N[C@@H](C)C(N)=O)C(C)C [WLNALLKKGLNCAKGVLA]
- MIC [36]: 2.96 µM (≈ 5.65 µg/mL)
- MIC [37]: 0.74 µM and 1.48 µM
- MIC [38]: 0.74 µM and 1.48 µM
- MIC [39]: 1.48 µM (≈ 2.83 µg/mL)
